Assays:
PDGF-R = PDGF-R (Homo sapiens, UniProt P09619); experiment: PDGF-R ELISA; format: cell-based
From the text: A PDGF-R ELISA is described in International Patent Publication No. WO 96/40116, published December 19, 1996 by Tang et al.

EGFR = target: T1, EGFR (Homo sapiens, UniProt P00533); experiment: EGFR ELISA assay (in vitro kinase activity, EGFR captured from A431 cell lysate); format: biochemical; design: concentration or dose not given beside the values
T1 construct: Add 7 ug A431 cell lysate per well (EGFR source); endogenous in cells; host or cells: A431
In short: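 EGFR from A431 lysate was captured on plates coated with anti-EGFR antibody. Compounds were added 30 min before a 5 min phosphorylation with 3 µM ATP/5 mM MnCl2, which was stopped with 20 mM EDTA. Phosphotyrosine was detected with rabbit anti-phosphotyrosine, then a peroxidase-conjugated secondary and ABTS/H2O2, read at 410 nm.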

MET = MET biochemical kinase assay; design: species or system human; concentration or dose not given beside the values
In short: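 Plates coated with anti-rabbit Fc bind a rabbit anti-MET antibody that captures receptor from cell lysates; unbound protein is washed off before compound and ATP-containing kinase buffer go in.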

PDGF-R, sequence (P09619 33-1106, species assumed): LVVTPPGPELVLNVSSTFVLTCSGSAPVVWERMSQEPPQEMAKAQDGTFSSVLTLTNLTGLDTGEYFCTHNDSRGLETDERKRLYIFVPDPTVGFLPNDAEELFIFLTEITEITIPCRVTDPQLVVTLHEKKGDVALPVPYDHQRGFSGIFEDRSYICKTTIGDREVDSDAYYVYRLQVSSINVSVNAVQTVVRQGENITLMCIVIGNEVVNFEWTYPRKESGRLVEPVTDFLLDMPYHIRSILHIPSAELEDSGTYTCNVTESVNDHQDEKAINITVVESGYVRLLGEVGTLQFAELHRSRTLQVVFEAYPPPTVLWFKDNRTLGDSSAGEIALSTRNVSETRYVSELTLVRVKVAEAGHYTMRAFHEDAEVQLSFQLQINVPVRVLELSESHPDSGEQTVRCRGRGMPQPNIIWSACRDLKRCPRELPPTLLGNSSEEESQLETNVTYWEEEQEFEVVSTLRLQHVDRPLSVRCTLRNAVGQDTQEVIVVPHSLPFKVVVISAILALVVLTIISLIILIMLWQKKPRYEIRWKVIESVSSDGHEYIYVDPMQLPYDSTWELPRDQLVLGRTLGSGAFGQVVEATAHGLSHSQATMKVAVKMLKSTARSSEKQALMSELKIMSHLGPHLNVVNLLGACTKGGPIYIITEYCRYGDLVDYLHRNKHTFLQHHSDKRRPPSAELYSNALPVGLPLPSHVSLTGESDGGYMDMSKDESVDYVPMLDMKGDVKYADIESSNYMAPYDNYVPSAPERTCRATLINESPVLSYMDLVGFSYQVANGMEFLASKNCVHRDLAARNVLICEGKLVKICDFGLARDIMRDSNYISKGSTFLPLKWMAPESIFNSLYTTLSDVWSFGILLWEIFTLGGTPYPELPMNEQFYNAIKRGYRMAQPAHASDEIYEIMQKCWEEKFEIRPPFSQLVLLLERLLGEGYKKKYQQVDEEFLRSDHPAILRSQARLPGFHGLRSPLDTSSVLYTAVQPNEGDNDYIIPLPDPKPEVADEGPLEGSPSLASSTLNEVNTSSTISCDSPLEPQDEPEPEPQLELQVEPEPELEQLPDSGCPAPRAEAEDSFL
T1 sequence (P00533 25-1210): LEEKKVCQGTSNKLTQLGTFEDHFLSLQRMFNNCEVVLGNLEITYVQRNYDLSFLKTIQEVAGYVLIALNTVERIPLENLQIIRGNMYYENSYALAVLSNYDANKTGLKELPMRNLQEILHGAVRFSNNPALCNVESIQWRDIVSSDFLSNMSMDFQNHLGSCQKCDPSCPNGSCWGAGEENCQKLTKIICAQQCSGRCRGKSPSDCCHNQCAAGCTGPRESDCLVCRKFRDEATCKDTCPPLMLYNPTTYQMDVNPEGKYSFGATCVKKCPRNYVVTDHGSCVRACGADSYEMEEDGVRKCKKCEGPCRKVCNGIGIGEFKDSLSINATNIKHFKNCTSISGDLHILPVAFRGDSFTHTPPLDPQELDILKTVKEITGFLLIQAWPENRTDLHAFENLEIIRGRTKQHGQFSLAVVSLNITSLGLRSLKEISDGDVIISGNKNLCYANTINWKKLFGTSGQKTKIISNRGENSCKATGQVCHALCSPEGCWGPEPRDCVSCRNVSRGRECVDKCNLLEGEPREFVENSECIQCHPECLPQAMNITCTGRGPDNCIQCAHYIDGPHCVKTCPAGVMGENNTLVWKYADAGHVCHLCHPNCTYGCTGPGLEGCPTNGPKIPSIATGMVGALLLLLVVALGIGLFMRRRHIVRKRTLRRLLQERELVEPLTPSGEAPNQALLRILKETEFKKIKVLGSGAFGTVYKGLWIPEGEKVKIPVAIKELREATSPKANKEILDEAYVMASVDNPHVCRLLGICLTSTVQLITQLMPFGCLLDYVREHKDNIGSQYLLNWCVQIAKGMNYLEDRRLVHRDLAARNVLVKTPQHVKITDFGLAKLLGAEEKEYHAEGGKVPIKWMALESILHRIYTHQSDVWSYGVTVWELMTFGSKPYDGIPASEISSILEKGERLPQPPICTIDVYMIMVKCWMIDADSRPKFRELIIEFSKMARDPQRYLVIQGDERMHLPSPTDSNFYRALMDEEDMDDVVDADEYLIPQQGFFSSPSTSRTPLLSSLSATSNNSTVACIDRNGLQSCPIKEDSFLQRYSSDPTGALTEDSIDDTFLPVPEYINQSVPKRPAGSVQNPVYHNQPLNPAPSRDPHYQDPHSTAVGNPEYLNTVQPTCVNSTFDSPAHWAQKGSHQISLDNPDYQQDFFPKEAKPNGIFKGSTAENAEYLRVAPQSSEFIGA

Compound | PDGF Kinase %Inhibition (PDGF-R) [%] | Biochem EGFR %Inhibition (EGFR) [%] | Met Kinase % Inhibition (MET) [%]
Cc1c(Br)ccc2c1C(=Cc1cccn1-c1ccc(Cl)cc1)C(=O)N2 [10724/C09] | 20.3 | 1.0 | 5.3
O=C1Nc2ccc(I)cc2C1=Cc1cc2ccccc2o1 [10724/B07] | 27.2 | 44.0 | 57.9
O=C1Nc2c(Br)cc(Br)cc2C1=Cc1ccc(N2CCOCC2)cc1 [10725/A08] | 14.1 | 10.9 | 45.3
Cc1c(Br)ccc2c1C(=Cc1cc3c4c(c1O)CCCN4CCC3)C(=O)N2 [10724/C05] | 20.3 | -0.8 | 67.7
O=C1Nc2ccc(CCCl)cc2C1=Cc1cccc(Br)c1 [10723/G10] | -27.8 | -4.1 | 40.7
CNS(=O)(=O)c1ccc2c(c1)C(=Cc1cc3c4c(c1O)CCCN4CCC3)C(=O)N2 [10724/D05] | 35.6 | -8.4 | 36.1
O=C1Nc2c(Br)cc(Br)cc2C1=Cc1cc2ccccc2o1 [10724/A07] | 16.1 | 18.3 | 58.7
Cn1cccc1C=C1C(=O)Nc2c(Br)cc(Br)cc21 [10717/A04] | – | 29.0 | 37.4
O=C1Nc2ccc(S(=O)(=O)Nc3ccc(C(F)(F)F)cc3)cc2C1=Cc1cc2ccccc2o1 [10724/E07] | 0.1 | 9.4 | 46.8
COc1ccc(Br)c(C=C2C(=O)Nc3ccc(I)cc32)c1O [10725/B03] | 7.8 | -15.3 | 70.8
CCc1ccc(C=C2C(=O)Nc3c(Br)cc(Br)cc32)o1 [10724/A10] | 28.6 | 40.0 | 83.8
O=C1Nc2ccc(S(=O)(=O)Nc3ccc(C(F)(F)F)cc3)cc2C1=Cc1cc2c3c(c1O)CCCN3CCC2 [10724/E05] | -7.6 | 0.5 | 70.3
CC(C)c1cc(C=C2C(=O)Nc3c(Br)cc(Br)cc32)cc(C(C)C)c1O [10724/A06] | 30.7 | 1.4 | 46.8
O=C1Nc2ccc(S(=O)(=O)Nc3ccc(C(F)(F)F)cc3)cc2C1=Cc1ccc(O)c([N+](=O)[O-])c1 [10724/E03] | 14.7 | 33.1 | 85.8
O=C1Nc2ccc(S(=O)(=O)N3CCOCC3)cc2C1=Cc1ccc(F)cc1 [10717/F05] | – | -20.1 | 21.5
O=C1Nc2ccc(S(=O)(=O)N3CCOCC3)cc2C1=Cc1c[nH]c2ccccc12 [10717/F06] | – | -22.8 | 49.0
O=C1Nc2ccc(S(=O)(=O)N3CCOCC3)cc2C1=Cc1cccs1 [10717/F03] | – | -4.7 | 42.8
O=C1Nc2ccc(S(=O)(=O)Nc3ccc(C(F)(F)F)cc3)cc2C1=Cc1ccc[nH]1 [10717/E09] | – | -5.8 | 19.2
Cn1cccc1C=C1C(=O)Nc2ccc(S(=O)(=O)N3CCOCC3)cc21 [10717/F04] | – | -15.7 | 11.4
COc1cccc(O)c1C=C1C(=O)Nc2ccc(S(=O)(=O)Nc3ccc(C(F)(F)F)cc3)cc21 [10717/E10] | – | -6.1 | 35.9
Cc1[nH]c(C=C2C(=O)Nc3ccc(S(=O)(=O)Nc4ccc(C(F)(F)F)cc4)cc32)c(Br)c1Br [10717/E11] | – | 44.9 | 75.1
CCOc1ccccc1C=C1C(=O)Nc2ccc(S(=O)(=O)N3CCOCC3)cc21 [10717/F02] | – | 6.2 | 30.4

Source: patent EP1247803A2, “Indolinone compounds suitable for modulation of protein kinases” (Sugen, Inc., priority 1996, dated 1998)
